Results from paper PMC8045554 (Pharmacological research, 2020).

Target: PCSK9 (proprotein convertase subtilisin/kexin type-9) (Homo sapiens, UniProt Q8NBP7)
Experiment: SPR with immobilized PCSK9
Assay type: binding

Kd: 23.4 µM
SMILES: CC/C=C\[C@H](O)[C@H](O)C1=C(C)C(=O)[C@]2(O1)C(=O)N[C@@](OC)(C(=O)c1ccccc1)[C@@H]2O [PS, Pseurotin A]
